The text below walks through data of a melting point compilation (Tetko et al.; mined from patent text by program, amines drawn as free bases though some values may be those of a salt).

Regarding `CCN(CC)CCCNc1nc2ccccc2n(-c2ccc(Cl)cc2)c1=O`, the melting point (commonly the temperature of the solid-liquid transition) lay within 123 to 124 °C.
Next, `COC(=O)c1ccc(/C=C(\C)c2ccc3c(c2)SCCCN3C)cc1`: 97 to 98 °C; `O=C(O)CC(Br)C(Br)c1ccc(Cl)cc1Cl` (configuration not stated): 184 to 185 °C.
The value for `CCOC(=O)Nc1nc2ccccc2c2c1nc(CC)n2CCCCNS(C)(=O)=O` was 185 to 187 °C; that for `CCCCCCNCCC(=O)O` was 95 to 97 °C.
`OC(c1ccccc1)c1ccc2nc3ccc(C(O)c4ccccc4)cc3c(-c3ccccc3)c2c1` (configuration not stated) yielded a melting point greater than 280 °C.
The molecule `O=C(O)Cc1nc(-c2c(Cl)cccc2Cl)no1` came in with a melting point of 124 to 126 °C.
Next, `O=C(NCCN1CCN=C1c1ccccn1)Nc1ccc(C(=O)O)cc1`: 220 to 223 °C; `Cc1nc(C)c(Cl)c(NCc2ccc(OCc3ccccc3)c(OCC(F)(F)F)c2)n1`: 135 to 138 °C.
`O=C(c1ccc(O)cc1)c1c(-c2ccccc2)cc2ccccn12` showed a melting point of 179 °C.
Next, `O=P(O)(O)CCCCCCCCCCCO`: 109 to 112 °C; `O=C(CC1CCC1)N[C@H]1CC[C@H](CCN2CCN(c3nccc4c3CCO4)CC2)CC1`: 193 °C.
With `CCCCc1ccc(OC)c(-c2csc(NC(=O)c3ccc(C(=O)N4CCC(N5CCC(OC(C)=O)C5)CC4)cc3)n2)c1` (configuration not stated), the melting point turned out to be 99 °C.
Turning to `O=C(OCc1ccc(CO)cc1COC(=O)c1ccccc1)c1ccccc1`, the melting point was in the range of 91 to 93 °C.
`Oc1ccc([C@H]2c3ccc(OCc4ccccc4)cc3OC[C@H]2c2ccccc2)cc1` (racemic) yielded a melting point of 204 to 205 °C.
`Cc1ccc(-c2nnc(-c3ccco3)s2)cc1` gave a melting point of 111 to 113 °C.
Turning to `CCOC(=O)Cn1c(=O)[nH]c(=O)c2cc(Cl)c(Cl)cc21`, the melting point was greater than 280 °C.
The molecule `Cc1nc(N)sc1CCC1CCCCC1` showed a melting point of 98 to 100 °C.
`CC(=O)c1ccc(OCCCC(=O)O)c(C)c1` registered a melting point of 114 to 116 °C.
Molecule `CCC1c2cccn2-c2ccc(F)cc2N1S(=O)(=O)c1ccc(O)c(Cl)c1` (configuration not stated) displayed a melting point of 180 to 184 °C.
`CN(C)CCNC1=CC(=O)c2nc(-c3ccccc3Br)oc2C1=O` returned a melting point of 147 to 148 °C.
As to `Cc1cc(-c2ccc(S(N)(=O)=O)cc2)n(-c2ccc(SSc3ccc(-n4cc(C)cc4-c4ccc(S(N)(=O)=O)cc4)cc3)cc2)c1`, the melting point lay in the range of 251 to 255 °C.
`COc1ccc(Cc2nc3cc(Cl)cc(CC=NO)c3o2)cc1OC1CCCC1`: the melting point was in the range of 149 to 151 °C.
As for `COCCOc1ncc(Br)nc1-c1ccc(Cl)cc1`, the melting point lay within 79 to 80 °C.
The value for `COc1ccc(CCNC(=O)C(F)(F)F)c2c1NC(=O)C2` was 175 to 178 °C; that for `CCc1cc(Oc2ccc([C@@H]3OC(=O)N[C@@H]3Cc3cccc(OC(F)(F)C(F)F)c3)cc2)ccc1Cl` (racemic) was 100 to 101 °C; that for `COc1ccc2c(c1)C(C(=O)N(Cc1ccc(NCc3ccccc3)cc1)c1ccc(C(C)C)cc1)CCC2` (configuration not stated) was 135 to 138 °C.
Molecule `CCOC(=O)c1cc(CCCOc2c(C)cc(-c3noc(C)n3)cc2C)on1` had a melting point of 95 to 96 °C.
`COc1ccccc1CNc1ccc2cc(Nc3ncccn3)ccc2n1` showed a melting point of 175 °C.
As to `CC1CN(c2ncc(C(=O)N(c3cccc(C(F)(F)F)c3)C3CCCC3)c(N)n2)C(=O)N1` (configuration not stated), the melting point fell in the range of 219 to 220 °C.
In turn, `CCCCCCCCCCCCOc1ccc(C#N)cc1-c1cc(C#N)ccc1OCCCCCCCCCCCC` registered a melting point of 168 to 170 °C.
The value for `COc1ccc2c(c1)C(O)C(Cc1ccc(OC)c(OC3CC4CCC3C4)c1)CO2` (configuration not stated) was 115 to 117 °C.
For `O=C(CCCc1cccs1)NC(Cc1ccc(C(F)(F)F)cc1)C(=O)c1ccc(F)cc1` (configuration not stated), the melting point was in the range of 123 to 124 °C.
Next, `Nc1cc2cccnc2c(Cc2ccccc2)n1`: 113 to 116 °C.
Regarding `CC(C)OC(=O)c1cc(-c2ccncc2)sc1-c1ccncc1`, the melting point fell in the range of 139 to 142 °C.
The molecule `COc1nc(C)nc(NC(=O)NS(=O)(=O)c2ccccc2OC(F)(F)C(F)(F)F)n1` displayed a melting point of 157 to 159 °C.
In the case of `COC(=O)c1ccc2c(=O)c(Cc3ccccc3)coc2c1`, the melting point lay in the range of 98 to 100 °C.
The molecule `NC1CCn2c(CCc3ccccc3)nc3cccc1c32` (configuration not stated) had a melting point of 43.6 to 45.6 °C.
In turn, `CCOC(=O)C(=CNc1cn[nH]c1)C(C)=O` yielded a melting point of 126 to 128 °C.
`CCCCCCCCCCC(C)(C)NC(=O)Nc1cc(OC)cc(C(C)(C)C)c1OCOC` displayed a melting point of 83 to 85 °C.
The value for `NCCCN1CCC(c2noc3cc(F)ccc23)CC1` was 59 to 62 °C; that for `COc1ccc(OC)c(SCCCCC#N)c1` was 64 to 66 °C.
With `CN=C(Nc1cc(Cl)cc(Cl)c1)N1CCN(c2ccc(OC(C)=O)cc2OC)CC1`, the melting point was found to be 144 °C.
The value for `N#CCN1C(=O)COc2cc(F)c(-n3c(=O)n4n(c3=O)CCCC4)cc21` was 286 to 287 °C; that for `O=S1(=O)N=C(NOCc2ccccc2)Nc2ccc(Cl)cc21` was greater than 220 °C.
Regarding `COCCn1nc2ccccc2c1C(=O)NCC1CCN(CCc2ccccc2F)CC1`, the melting point was 128 to 130 °C.
With `Nc1noc(CN2CCC[C@@H](OCc3cc(C(F)(F)F)cc(C(F)(F)F)c3)[C@H]2c2ccccc2)n1` (relative stereo), the melting point fell in the range of 138 to 139 °C.
As to `CN1CC(C(=O)c2oc(C3CCS(=O)(=O)CC3)cc2Cc2ccc(F)cc2)=C(O)C1=O`, the melting point lay within 200 to 203 °C.
Molecule `CCC(=O)Nc1c(C(=O)c2cccc(Cl)c2)[nH]c2ccc(Cl)cc12` had a melting point of 206 to 208 °C.
For the molecule `COc1ccc(-c2nc(C)c(Br)[nH]2)cc1`, the melting point fell in the range of 179 to 184 °C.
Molecule `N#Cc1cccc(-c2ccc(OC[C@@H](O)CCc3cccnc3)cc2)c1` yielded a melting point of 74 to 75 °C.
As for `CCCCNC(=O)c1cc([N+](=O)[O-])cnc1C`, the melting point was 98 to 99 °C.
As for `Cc1nc2cccc(C3CC3CN3C(=O)c4ccccc4C3=O)c2s1` (configuration not stated), the melting point lay within 151 to 153 °C.
The value for `Cc1cc(C[C@H](N)[C@H](O)c2ccc(F)cc2)cc(OC(F)(F)C(F)F)c1` (racemic) was 96 to 98 °C; that for `CNC(CC(C)C)c1nc(-c2ccc3c(c2)Nc2ccccc2O3)cs1` (configuration not stated) was 143 to 147 °C; that for `CN(C)C(=O)C=Cc1c(C#N)cnn1-c1ncc(C(F)(F)F)cc1Cl` was 116 to 120 °C.
In turn, `COc1ccc(N2CCN(c3ccc(OC)nc3-c3ccc(OC)cc3CO)CC2)cc1` gave a melting point of 163 to 165 °C.
As to `CC(C)Cn1cnc2c(O)nc3ccccc3c21`, the melting point is greater than 300 °C.
The value for `CC(C)n1nc(-c2sc(NC(=O)c3cccc(Cl)c3)nc2-c2ccccc2)ccc1=O` was 173 to 174 °C; that for `CC(Cl)C(=O)CCCCN1C(=O)c2ccccc2C1=O` (configuration not stated) was 61 to 63 °C; that for `COc1cccc2sc(-c3ccc([N+](=O)[O-])cc3Cl)nc12` was 187 to 188 °C.
`CCOc1sc(C(=O)O)c2c1-c1c(cnn1C)CC2` had a melting point of 258 to 260 °C.
Molecule `CCCSc1ncc(CCCC(=O)O)n1Cc1ccccc1Cl` showed a melting point of 98 to 99 °C.
As for `CCCNC(=O)N(C)Cc1cccc2c1CN(C1CCC(=O)NC1=O)C2=O` (configuration not stated), the melting point lay within 220 to 222 °C.
As for `CN(C)C(=O)Nc1ccc(Oc2ccnc(Cl)n2)cc1`, the melting point was 192 °C.
Molecule `NCCC(C(N)=O)c1ccc(O)cc1` (configuration not stated) registered a melting point of 168 to 170 °C.
Consider `N#Cc1nn(-c2c(Cl)cc(C(F)(F)F)cc2Cl)c(SCc2ccccc2)c1S(=O)(=O)C(F)(F)F`, for which the melting point was in the range of 117 to 119 °C.
For the molecule `Oc1cccc(C=C2c3ccccc3Cc3ccccc32)c1`, the melting point stood at 196 °C.
As for `Cc1ccc2[nH]nc(S(C)=O)c(=O)c2c1` (configuration not stated), the melting point lay in the range of 265 to 267 °C.
As for `CC(C)c1cccc(C(C)C)c1NC(=O)Nc1ccccc1C(=O)NC1CCN(C(c2ccccc2)c2ccccc2)CC1`, the melting point stood at 118 °C.
The value for `CC(=CCCC(C)C1CCC2(C)C3=CCC4C(C)(C)C(=O)CCC4(C)C3=CCC12C)CO` (configuration not stated) was 75 to 80 °C; that for `O=C(c1ccc2ncccc2c1)c1ccc2[nH]c(=O)nc(-c3cccc(Cl)c3)c2c1` was greater than 260 °C.
The value for `CCOc1nc(NCc2ccco2)nc(N2CCN(Cc3ccccn3)CC2)n1` was 115 to 117 °C.
For `Cn1c(=O)sc2cc(N)ccc21`, the melting point fell in the range of 188 to 190 °C.
Next, `CS(=O)c1cc(CCC(=O)OC(C)(C)C)cc(-c2nc(=O)c3ccccc3s2)n1` (configuration not stated): 220 °C; `Cc1ccc(S(=O)(=O)NCCC2CCC(CC(=O)O)CC2)cc1` (configuration not stated): 104 to 105 °C.
The value for `c1ccc(-c2ccc3[nH]nc(Nc4nccs4)c3c2)nc1` was 234 to 236 °C; that for `COc1ccc(-c2nc(CC(=O)Cc3ccc(OC(C)=O)c(OC(C)=O)c3)cs2)cc1OC` was 128 °C; that for `Cc1cccc(NC(=O)NCc2cccc3c2C(=O)N(C2CCC(=O)NC2=O)C3=O)c1` (configuration not stated) was greater than 260 °C.
`NC(CO)(CCCc1ccc(Sc2cccc(OCc3ccccc3)c2)cc1Cl)CCP(=O)(O)O` (configuration not stated): the melting point fell in the range of 193 to 196 °C.
The molecule `CC(C)(C)NS(=O)(=O)c1ccccc1CCOS(C)(=O)=O` returned a melting point of 106 to 108 °C.
`O=S1(=O)c2cccc3cccc(c23)N1CCN1CCC(Cc2cnc3ccccc3c2)CC1` displayed a melting point of 150 °C.
The value for `C[C@@H](O)[C@H]1CC[C@H]2[C@@H]3CC=C4CC(=O)CC[C@]4(C)[C@H]3CC[C@]12C` was 171 to 175 °C; that for `COc1ccc2c(c1)c(CC(=O)O[C@H]1CO[C@H]3[C@H]1OC[C@H]3O[N+](=O)[O-])c(C)n2C(=O)c1ccc(Cl)cc1` was 159 to 160 °C; that for `COc1cccc2nc3[nH]c(=O)[nH]c3cc12` was greater than 300 °C.
In turn, `O=C1Nc2c(Cl)cc(Cl)c3cccc1c23` had a melting point of 265 °C.
Next, `COC(=O)n1c(Cl)nc2c(C)cccc21`: 90 to 91 °C.
